In PubChem BioAssay (NCI) one finds TGI data, which are given here for seven molecules.

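Where inhibition never reached the appropriate level, the endpoint shown equals the highest concentration tested. Otherwise, values were interpolated linearly from a five-concentration, 48-hour dose response in 96-well plates. TGI marks complete inhibition of growth.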

Among the test systems are UACC-257 melanoma; KM12 colon; SN12C renal; HT29 colon; NCI-H226 lung; NCI-H522 lung; HCT-15 colon; SR leukemia; NCI-H460 lung; TK-10 renal; RXF 393 renal; HCT-116 colon; COLO 205 colon; MCF7 breast; OVCAR-8 ovarian; MDA-MB-435; UACC-62 melanoma; MOLT-4 leukemia; SNB-75 CNS.
Common to all, as to experiment: inhibition of tumour cell growth, NCI panel, 48 h

Regarding `Nc1nnc(-c2ccco2)c(-c2ccco2)n1`, the TGI in the assay with UACC-257 melanoma, in the assay with KM12 colon, in the assay on SN12C renal, in the assay on HT29 colon, in the assay on NCI-H226 lung and with NCI-H522 lung was > 100 µM throughout. Moreover, the TGI in the assay on HCT-15 colon, in the assay on SR leukemia, in the assay with NCI-H460 lung, with TK-10 renal, in the assay on RXF 393 renal and in the assay with HCT-116 colon was > 100 µM throughout. For the same molecule, the TGI with COLO 205 colon, in the assay with MCF7 breast, in the assay with OVCAR-8 ovarian, in the assay with MDA-MB-435, in the assay with UACC-62 melanoma and with MOLT-4 leukemia was > 100 µM throughout. Also, in the assay on SNB-75 CNS, the TGI was > 100 µM.
As for `COc1cc(/C=C/C2=NN(c3cccc(S(=O)(=O)O)c3)C3(C2)C(Cl)C(=O)N3c2nc3ccccc3s2)ccc1O` (stereo not drawn), the TGI was determined as 42.6 µM in the assay on UACC-257 melanoma; 41.2 µM in the assay on KM12 colon; 47.5 µM with SN12C renal; 40.8 µM in the assay on HT29 colon; 52.6 µM in the assay on NCI-H226 lung; 30.4 µM in the assay on NCI-H522 lung. The TGI in the assay on HCT-15 colon was 37.4 µM; in the assay on SR leukemia, 34.8 µM; in the assay with NCI-H460 lung, > 100 µM; in the assay with TK-10 renal, 28.2 µM; in the assay with RXF 393 renal, > 100 µM; in the assay with HCT-116 colon it was 39.2 µM. The TGI is 40.4 µM with COLO 205 colon; > 100 µM with MCF7 breast; 40.8 µM with OVCAR-8 ovarian; 32.1 µM in the assay with MDA-MB-435; 43.1 µM in the assay with UACC-62 melanoma; 44.9 µM with MOLT-4 leukemia. Further, the TGI in the assay with SNB-75 CNS came to 60 µM.
For `CC1CC[C@@]2(OC1)OC1C[C@H]3[C@@H]4CC[C@H]5CC(OC6OC(CO)C(OC7OC(CO)C(O)C(O)C7O)C(O)C6O)CCC5(C)[C@H]4CCC3(C)C1[C@@H]2C` (stereo partly drawn), the TGI in the assay with UACC-257 melanoma was determined as 18.3 µM; in the assay with KM12 colon, 15.8 µM; in the assay with SN12C renal it was 15.3 µM; in the assay with HT29 colon it was 15.8 µM; in the assay with NCI-H226 lung it was 16.5 µM; with NCI-H522 lung, 13.8 µM. The TGI with HCT-15 colon came out at 28.9 µM; in the assay with SR leukemia, 27.5 µM; in the assay on NCI-H460 lung, 21.1 µM; with TK-10 renal, 17.6 µM; in the assay on RXF 393 renal it was 19.8 µM; with HCT-116 colon, 15 µM. In addition, the TGI turned out to be 14 µM in the assay on COLO 205 colon; 15 µM in the assay with MCF7 breast; 16.7 µM with OVCAR-8 ovarian; 18 µM in the assay with MDA-MB-435; 17.6 µM in the assay with UACC-62 melanoma; 25.4 µM in the assay on MOLT-4 leukemia. In the assay with SNB-75 CNS, the TGI worked out at 18.7 µM.
With `O=C1C(N=Nc2ccc(-c3nc4ccccc4o3)cc2)NC(=S)N1c1ccccc1` (stereo not drawn), the TGI in the assay with UACC-257 melanoma, in the assay on KM12 colon, with SN12C renal, in the assay on HT29 colon, with NCI-H226 lung and with NCI-H522 lung was > 100 µM in each case. The TGI in the assay with HCT-15 colon is > 100 µM; in the assay with SR leukemia, 85.6 µM; in the assay with NCI-H460 lung, > 100 µM; in the assay on TK-10 renal it was > 100 µM; with RXF 393 renal it was > 100 µM; in the assay with HCT-116 colon, > 100 µM. The TGI in the assay on COLO 205 colon, in the assay on MCF7 breast, with OVCAR-8 ovarian, with MDA-MB-435, in the assay with UACC-62 melanoma and in the assay with MOLT-4 leukemia was > 100 µM throughout. Moreover, the TGI in the assay on SNB-75 CNS is > 100 µM.
`CCCCCCCC(=O)N/N=C/c1ccc(Sc2nccn2C)c([N+](=O)[O-])c1`: the TGI stood at 26.9 µM with UACC-257 melanoma; 32.1 µM in the assay on KM12 colon; 28.9 µM in the assay on SN12C renal; 23.4 µM in the assay on HT29 colon; 32.5 µM in the assay on NCI-H226 lung; 28.4 µM in the assay on NCI-H522 lung. Besides, the TGI in the assay with HCT-15 colon was 29.3 µM; in the assay with SR leukemia it was 55.6 µM; with NCI-H460 lung, 30.5 µM; in the assay on TK-10 renal it was 83.2 µM; with RXF 393 renal, 30.4 µM; in the assay with HCT-116 colon it was 28.5 µM. The TGI in the assay with COLO 205 colon was 27.5 µM; in the assay with MCF7 breast, 38.2 µM; in the assay with OVCAR-8 ovarian it was 37.4 µM; in the assay on MDA-MB-435, 28.5 µM; in the assay on UACC-62 melanoma, 25.8 µM; with MOLT-4 leukemia, 62.5 µM. Further, the TGI in the assay on SNB-75 CNS worked out at 39 µM.
On to `CSCC[C@H]1C(=O)N=C(N)N1C(=O)OCc1ccccc1`, for which the TGI is > 100 µM with UACC-257 melanoma; > 100 µM in the assay on KM12 colon; > 100 µM with SN12C renal; > 100 µM in the assay with HT29 colon; 84.1 µM in the assay on NCI-H226 lung; 46.5 µM in the assay on NCI-H522 lung. Also, the TGI with HCT-15 colon is > 100 µM; in the assay with SR leukemia, 55.8 µM; with NCI-H460 lung it was > 100 µM; in the assay on TK-10 renal, > 100 µM; with RXF 393 renal it was 45.6 µM; in the assay on HCT-116 colon it was 37.7 µM. Moreover, the TGI with COLO 205 colon was 39.7 µM; in the assay with MCF7 breast, > 100 µM; in the assay with OVCAR-8 ovarian, > 100 µM; in the assay with MDA-MB-435, > 100 µM; in the assay with UACC-62 melanoma, 63.9 µM; with MOLT-4 leukemia it was 51.5 µM. Moreover, the TGI with SNB-75 CNS is > 100 µM.
On to `N=c1oc2ccc(Cl)cc2cc1C(=O)Nc1ccccc1`, for which the TGI with UACC-257 melanoma, with KM12 colon, in the assay on SN12C renal, with HT29 colon, in the assay on NCI-H226 lung and with NCI-H522 lung was > 100 µM in each case. For the same molecule, the TGI in the assay on HCT-15 colon, in the assay with SR leukemia, with NCI-H460 lung, with TK-10 renal, in the assay with RXF 393 renal and in the assay on HCT-116 colon was > 100 µM each time. Also, the TGI in the assay with COLO 205 colon, in the assay on MCF7 breast, in the assay with OVCAR-8 ovarian, in the assay on MDA-MB-435, in the assay on UACC-62 melanoma and in the assay with MOLT-4 leukemia was > 100 µM each time. Moreover, in the assay on SNB-75 CNS, the TGI is > 86.4 µM.
